Tests used:
Male NMRI mice [1] = assay: Spontaneous locomotor activity; assay type: in vivo; details: doses of 5 and 10 mg/kg p.o.
Description: (§1) Male NMRI mice weighing 24-26 g were used. The animals were kept in polycarbonate cages in a thermostatically controlled room at 24+2° C. and at a relative humidity (RH) of 50±10%. The room was artificially illuminated from 6 am to 6 pm and the mice were given commercial pellet rat-mouse feed, autoclaved at 105° C. and sterile filtered tap water, ad libitum.
(§2) An aqueous solution of radiprodil, in the form of a complex with heptakis(2,6-di-O-methyl)-β-cyclodextrin(DIMEB), was administered orally at doses of 2.5, 5 and 10 mg/kg (calculated for non-complexed radiprodil). […]
Spontaneous locomotor activity was measured in a four-channel activity monitor manufactured by Farmakotechnika (Hungary). […] The photocell beam, when broken, signaled a count, which was then recorded by a computer.
Each group consisted of 10 animals. […] The horizontal and vertical movements were determined as the number of beam interruptions collected in 15 minute intervals throughout the 1 hour period.
In the spontaneous locomotor activity test, the mean (±s.e.m) value of one hour horizontal activity data (in counts) of each group was calculated.
The significance of the drug effect was determined by ANOVA followed by post-hoc Duncan-test. The percentage change in the horizontal activity, immobility or “FST-activity” variables were calculated for each dose according to the equation; […]

Male NMRI mice [2] = assay: Forced swimming test (FST); assay type: in vivo; details: doses of 5 and 10 mg/kg p.o., may be a false positive from nonspecific stimulatory effect
Description: The aim of this study was to evaluate the antidepressant activity of radiprodil. The forced swimming test is a behavioral assay that can be used to predict antidepressant efficacy of drugs in humans.
as §1, §2
The forced swimming test (FST) was measured in glass cylinders (height: […], diameter 14 cm) containing 12 cm of water, maintained at 23-25° C. […] The duration of immobility was recorded using a stopwatch. […]
In the forced swimming test, the mean±standard error on the mean (s.e.m) immobility time in seconds was measured. […] The mean (±s.e.m) “FST-activity” value was also calculated for each group and submitted to the same data analysis process as the immobility data.
The significance of the drug effect was determined by ANOVA followed by post-hoc Duncan-test. […]

In the case of `O=C(Nc1ccc2[nH]c(=O)oc2c1)C(=O)N1CCC(Cc2ccc(F)cc2)CC1` [radiprodil, 2-[4-(4-fluoro-benzyl)-piperidine-1-yl]-2-oxo-N-(2-oxo-2,3-dihydro-benzoxazol-6-yl)acetamide], the “effect on spontaneous motor activity (in words)” value (Male NMRI mice [1]) is reported as “stimulated the spontaneous motor activity” and the “effect in the forced swimming test (in words)” value (Male NMRI mice [2]) is reported as “significant effects”.

Source: patent publication US20110190348A1, “METHODS FOR TREATING CNS DISORDERS” (priority 2008, published 2011)
